Data: ChEMBL document CHEMBL5126526, “Non-nucleoside structured compounds with antiviral activity-past 10 years (2010-2020)” (2022)

Tested on: Influenza A virus
Assay: Antiviral activity against influenza A virus (A/California/04/2009 (H1N1pdm)) infected in BALB/c mouse assessed as fold reduction in viral titers in lung homogenates at 20 mg/kg per day, po BID treated 2 hrs prior to viral infection followed by compound redosing at 12 hrs for 6 days
Assay type: functional

**Q.** `O=C(O)[C@H]1C2CCC(CC2)[C@@H]1Nc1nc(-c2c[nH]c3ncc(F)cc23)ncc1F` [PIMODIVIR] was tested. Which “fold change (FC)” value did it give?
**A.** Its value is 100.
